Data: PubChem BioAssay (NCI)
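Five compound concentrations were applied to cells in 96-well plates for 48 hours; endpoints were derived by simple linear interpolation of the resulting dose-response curve. TGI: concentration producing complete growth inhibition.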

Key:
Test in all cases: NCI-60 cell line screen, 48 h
CCRF-CEM leukemia = tested on: CCRF-CEM leukemia
HOP-62 NSCLC = tested on: HOP-62 NSCLC
HT29 colon = tested on: HT29 colon
KM20L2 colon = tested on: KM20L2 colon
LOX IMVI melanoma = tested on: LOX IMVI melanoma
M14 melanoma = tested on: M14 melanoma
MALME-3M melanoma = tested on: MALME-3M melanoma
OVCAR-4 ovarian = tested on: OVCAR-4 ovarian
OVCAR-8 ovarian = tested on: OVCAR-8 ovarian
SF-539 CNS = tested on: SF-539 CNS
SK-MEL-28 melanoma = tested on: SK-MEL-28 melanoma
SK-OV-3 ovarian = tested on: SK-OV-3 ovarian
SNB-19 CNS = tested on: SNB-19 CNS
SNB-75 CNS = tested on: SNB-75 CNS
SNB-78 CNS = tested on: SNB-78 CNS
SW-620 colon = tested on: SW-620 colon
UACC-62 melanoma = tested on: UACC-62 melanoma
NCI-H522 lung = tested on: NCI-H522 lung
HS 578T breast = tested on: HS 578T breast
MCF7 breast = tested on: MCF7 breast

| SMILES | TGI (CCRF-CEM leukemia) [µM] | TGI (HOP-62 NSCLC) [µM] | TGI (HT29 colon) [µM] | TGI (KM20L2 colon) [µM] | TGI (LOX IMVI melanoma) [µM] | TGI (M14 melanoma) [µM] | TGI (MALME-3M melanoma) [µM] | TGI (OVCAR-4 ovarian) [µM] | TGI (OVCAR-8 ovarian) [µM] | TGI (SF-539 CNS) [µM] | TGI (SK-MEL-28 melanoma) [µM] | TGI (SK-OV-3 ovarian) [µM] | TGI (SNB-19 CNS) [µM] | TGI (SNB-75 CNS) [µM] | TGI (SNB-78 CNS) [µM] | TGI (SW-620 colon) [µM] | TGI (UACC-62 melanoma) [µM] | TGI (NCI-H522 lung) [µM] | TGI (HS 578T breast) [µM] | TGI (MCF7 breast) [µM] |
| --- | --- | --- | --- | --- | --- | --- | --- | --- | --- | --- | --- | --- | --- | --- | --- | --- | --- | --- | --- | --- |
| CC1OC(n2ccc(=O)[nH]c2=O)C=C(OC(=O)c2ccccc2)C1=O (stereo not given) | > 100 | > 100 | > 100 | > 100 | > 100 | > 100 | > 100 | 36.8 | > 100 | > 100 | > 100 | > 100 | > 100 | 63.1 | > 100 | > 100 | > 100 |  |  |  |
| COc1ccc2c(c1)C(=O)N1CCOC1C2C(=O)O (stereo not given) | > 100 | > 100 | > 100 | > 100 | > 100 | > 100 |  | > 100 | > 100 | > 100 | > 100 | > 100 | > 100 | > 100 | > 100 | > 100 | > 100 | > 100 |  |  |
| N#CC(C(=O)/C(=N/NC(=O)c1ccccc1O)C(C#N)c1ccccc1)c1ccccc1 (stereo not given) |  | > 100 | > 100 | > 100 | > 100 | > 100 | > 100 | > 100 | > 100 | > 100 | > 100 | > 100 |  | > 100 | > 100 |  | > 100 |  |  |  |
| COc1ccc(NC(=O)CC(=O)N2N=C(N(CCC#N)c3ccccc3Cl)CC2c2ccccc2)cc1 (stereo not given) | > 100 | > 100 | > 100 | > 100 | > 100 | > 100 | > 100 | > 100 | > 100 | > 100 | > 100 |  | > 100 | > 100 | > 100 | > 100 | > 100 | > 100 |  |  |
| CN(C)CCC(O)(c1ccccc1)C(O)(CCN(C)C)c1ccccc1 (stereo not given) | > 100 | > 100 | > 100 | > 100 |  | 32.8 | 32.6 | > 100 | > 100 |  | > 100 | > 100 | > 100 | > 100 | > 100 | > 100 | > 100 | > 100 |  |  |
| CCOc1ccc(NC(=O)C2=C(C)NC(C)=C(C(=O)Nc3ccc(OCC)cc3)C2c2ccc(O)c(OC)c2)cc1 | > 100 | 92.9 | > 100 | > 100 | > 100 | > 100 | > 100 | > 100 | > 100 | 83.6 | > 100 | > 100 | > 100 | 59.2 | > 100 | > 100 |  | > 100 |  |  |
| CCCOC(=O)C1CCC(=O)N1C(=O)C(C)Cl (stereo not given) | > 100 | > 100 | > 100 | > 100 | > 100 | > 100 | > 100 | > 100 | > 100 |  | > 100 | > 100 | > 100 | > 100 | > 100 | > 100 | > 100 | > 100 |  |  |
| CCOCN1COCN=C1NC#N |  | > 100 | > 100 | > 100 |  | > 100 | > 100 | > 100 | > 100 | > 100 | > 100 | > 100 | > 100 | > 100 | > 100 | 35.3 | > 100 | > 100 |  |  |
| N#CCCN(c1ccc(/C=C2\N=C(Cc3ccccc3)OC2=O)cc1)S(=O)(=O)c1ccccc1 | > 100 | > 100 | > 100 | > 100 | > 100 | > 100 | > 100 |  | > 100 | > 100 | > 100 | > 100 | > 100 | > 100 | > 100 | > 100 | > 100 | > 100 |  |  |
| CC(=O)O[C@]12CCCCC1C1(O)C(O)CCCCC12 (stereo not given in full) | > 100 | > 100 | > 100 | > 100 | > 100 | > 100 | > 100 | > 100 | > 100 |  | > 100 | > 100 | > 100 | > 100 | > 100 | > 100 | > 100 | > 100 |  |  |
| C#CCNC(=O)NCCCC(NC(C)=O)C(=O)NCc1ccccc1 (stereo not given) | > 100 | > 100 | > 100 | > 100 | > 100 | > 100 | > 100 | > 100 | > 100 | > 100 | > 100 | > 100 | > 100 | > 100 | > 100 | > 100 | > 100 | > 100 |  |  |
| COC(=O)C1CCC(Nc2ccc(C)cc2C)=N1 (stereo not given) | > 100 | > 100 | > 100 | > 100 | > 100 | > 100 | > 100 | > 100 | > 100 |  | > 100 | > 100 | > 100 | > 100 | > 100 | > 100 | > 100 | > 100 |  |  |
| N#CC(/C(=N/NC(=O)C(=O)NN)C(=O)Nc1nc([N+](=O)[O-])cs1)c1ccc(Cl)cc1 (stereo not given) | > 100 | > 100 | > 100 | > 100 | > 100 | > 100 | > 100 | > 100 | > 100 |  | > 100 |  | > 100 | > 100 | > 100 | > 100 | > 100 |  |  |  |
| Cn1c2c(c3ccccc31)CCN(CCN1CCN(c3ccccc3)CC1)C2=O | > 100 |  | > 100 | > 100 | > 100 | > 100 |  |  | > 100 | > 100 | > 100 | > 100 |  |  |  | > 100 | > 100 | 92.9 |  |  |
| O=C(CC(=O)Nc1cccc(Cl)c1)NNCC(=O)Nc1nnc(-c2ccccc2)s1 |  | > 100 | > 100 | > 100 | > 100 | > 100 |  | 5.99 | > 100 | > 100 | > 100 | 77.3 | > 100 | 33.8 | > 100 | > 100 | > 100 | > 100 |  |  |
| COc1ccc(/C(Cl)=C(/c2ccc(O)cc2)c2ccc(OCCN(C)C)cc2)cc1 |  | 26.7 | 6.49 | 11.7 | 12.6 | 4.22 | 14.4 | 27.1 | 28.9 | 23.8 | 13.4 | 26.3 | 27.1 | 23.3 | 29.3 | 24.2 | 32.9 | 25.1 |  |  |
| Nc1nc(NCCO)c(N=O)c(=O)[nH]1 | > 100 | > 100 | > 100 | > 100 | > 100 | > 100 | > 100 | > 100 | > 100 | > 100 | > 100 | > 100 |  | > 100 | > 100 | > 100 | > 100 | > 100 |  |  |
| NC(=O)C#CC#CC#CCO |  | 23.1 | 4.04 | 27.3 | 3.83 | 3.63 | 3.72 | 3.53 | 3.42 |  | 3.58 | 25.5 | 29.6 |  | 7.03 | 3.33 | 4.32 | 0.301 |  |  |
| O=C1[C@@H]2C(c3ccc(Cl)cc3Cl)=NO[C@@H]2C(=O)N1c1ccc(Cc2ccc(N3C(=O)[C@H]4C(c5ccc(Cl)cc5Cl)=NO[C@H]4C3=O)cc2)cc1 | > 100 | > 100 | > 100 | > 100 | > 100 | > 100 | > 100 | > 100 | > 100 | > 100 | > 100 | > 100 |  | > 100 | > 100 | > 100 | > 100 |  |  |  |
| Cc1ccccc1C1OC(=O)c2ccccc21 (stereo not given) | > 100 | > 100 | > 100 | > 100 | > 100 | > 100 | > 100 |  | > 100 | > 100 | > 100 | > 100 | > 100 | > 100 | > 100 | > 100 | > 100 | > 100 |  |  |
| CCOC(=O)N1C2C=C(C)C(ON2C(=O)c2ccccc2)C2C(C)C(=O)N21 (stereo not given) | > 100 | > 100 | > 100 | > 100 | > 100 | > 100 | > 100 | > 100 | > 100 | > 100 | > 100 | > 100 | > 100 | > 100 | > 100 | > 100 | > 100 |  |  |  |
| NC(=O)c1cccc(C2OC(COP(=O)(O)O)C(O)C2O)c1 (stereo not given) | > 50 | > 50 | > 50 | > 50 | > 50 | > 50 | > 50 |  | > 50 | > 50 | > 50 | > 50 | > 50 | > 50 | > 50 | > 50 | > 50 | > 50 |  |  |
| Nc1ccc2nc(NCc3ccc(F)cc3)cnc2c1 | > 100 | > 100 | > 100 | > 100 | > 100 | > 100 | > 100 | > 100 | > 100 | > 100 | > 100 |  | > 100 | > 100 | > 100 | > 100 | > 100 | > 100 |  |  |
| CC(=O)N1CN2C(=O)CCC2c2ccccc21 (stereo not given) | > 100 | > 100 | > 100 |  | > 100 | > 100 | > 100 | > 100 | > 100 | > 100 | > 100 | > 100 | > 100 | > 100 |  | > 100 | > 100 | > 100 | > 100 | > 100 |
| O=C1CCCC2C(O)CCC[C@H]12 (stereo not given in full) | > 100 | > 100 | > 100 |  | > 100 | > 100 | > 100 | > 100 | > 100 | > 100 | > 100 | > 100 | > 100 | > 100 |  | > 100 | > 100 | > 100 | > 100 | > 100 |
| S=C1Cc2c(-c3ccc(Cl)cc3)cc(-c3ccccc3)nc2-c2ccccc2N1 | > 100 | 24.1 | 21.6 |  | 35.2 | 49 | 35.9 | 18 | 8.04 | 16.2 | > 100 | 25.7 | 21.5 | 17.4 |  | > 100 | 41.3 | 40.2 | 16.3 | > 100 |
| N#Cc1n[nH]n(C2CCCCC2)c1=O | > 100 | > 100 | > 100 |  | > 100 | > 100 | > 100 | > 100 | > 100 | > 100 | > 100 | > 100 | > 100 | > 100 |  | > 100 | > 100 | > 100 | > 100 | > 100 |
| COc1ccccc1/C=C(\C#N)C(=O)c1ccccc1 | > 100 | > 100 | > 100 | > 100 | > 100 | > 100 | > 100 | > 100 | > 100 | > 100 | > 100 | > 100 | > 100 |  | > 100 | > 100 | > 100 | > 100 |  |  |
